In PubChem BioAssay AID1919017 (Molecular Pharmacology Branch, DTP, NCI, 2023):
Values joined by “and” are separate entries in the source; they are usually repeats but may differ in a detail not shown here. Equal values may be shown once.

System: SW1271 complex spheroids with HUVEC/MSC, growth, % test/control
Assay: Anticancer human tumor SW1271 cell line growth inhibition [AhR];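 also: spheroids exposed to agents for 7 days before readout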
Settings: for viability, T/C: stronger effect = lower value
How it was run: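 Complex tumor spheroids co-cultured with HUVEC and human MSC stroma; AhR antagonists tested in combination with standard-of-care and investigational agents. Top concentration at or near clinical Cmax (else 10 microM), half-log dilutions; growth expressed as percent test/control.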

[1] = curve of first compound, second compound 0.1 µM
[2] = curve of first compound, second compound 0.316 µM
[3] = curve of first compound, second compound 1 µM
[4] = curve of first compound, second compound 3.16 µM
[5] = curve of first compound, second compound 10 µM
[6] = second compound 0.1 µM, first compound 0.0316 µM
[7] = second compound 0.1 µM, first compound 0.1 µM
[8] = second compound 0.1 µM, first compound 0.316 µM
[9] = second compound 0.1 µM, first compound 1 µM
[10] = second compound 0.316 µM, first compound 0.0316 µM
[11] = second compound 0.316 µM, first compound 0.1 µM
[12] = second compound 0.316 µM, first compound 0.316 µM
[13] = second compound 0.316 µM, first compound 1 µM
[14] = second compound 1 µM, first compound 0.0316 µM
[15] = second compound 1 µM, first compound 0.1 µM
[16] = second compound 1 µM, first compound 0.316 µM
[17] = second compound 1 µM, first compound 1 µM
[18] = second compound 3.16 µM, first compound 0.0316 µM
[19] = second compound 3.16 µM, first compound 0.1 µM
[20] = second compound 3.16 µM, first compound 0.316 µM
[21] = second compound 3.16 µM, first compound 1 µM
[22] = second compound 10 µM, first compound 0.0316 µM
[23] = second compound 10 µM, first compound 0.1 µM
[24] = second compound 10 µM, first compound 0.316 µM
[25] = second compound 10 µM, first compound 1 µM
[26] = second compound 0.1 µM, first compound 3.16 µM
[27] = second compound 0.1 µM, first compound 10 µM
[28] = second compound 0.316 µM, first compound 3.16 µM
[29] = second compound 0.316 µM, first compound 10 µM
[30] = second compound 1 µM, first compound 3.16 µM
[31] = second compound 1 µM, first compound 10 µM
[32] = second compound 3.16 µM, first compound 3.16 µM
[33] = second compound 3.16 µM, first compound 10 µM
[34] = second compound 10 µM, first compound 3.16 µM
[35] = second compound 10 µM, first compound 10 µM

Row | SMILES | IC50 [1] | IC50 [2] | IC50 [3] | IC50 [4] | IC50 [5] | viability, T/C [6] | viability, T/C [7] | viability, T/C [8] | viability, T/C [9] | viability, T/C [10] | viability, T/C [11] | viability, T/C [12] | viability, T/C [13] | viability, T/C [14] | viability, T/C [15] | viability, T/C [16] | viability, T/C [17] | viability, T/C [18] | viability, T/C [19] | viability, T/C [20] | other results
1 | Nc1ncn(C2CC(O)C(CO)O2)c(=O)n1 (configuration not stated) + Cc1cncc(-c2nc(NCCc3c[nH]c4ccccc34)c3ncn(C(C)C)c3n2)c1 | > 1000 nM | > 1000 nM | > 1000 nM | > 1000 nM | 307 nM | 104% | 87% | 83.1% | 83.8% | 111% | 83.4% | 76.3% | 95.1% | 107% | 77.3% | 111% | 84% | 87.9% | 104% | 90% | viability, T/C (second compound 0.1 µM, first compound 0.00316 µM): 107%; viability, T/C (second compound 0.1 µM, first compound 0.01 µM): 123%; viability, T/C (second compound 0.316 µM, first compound 0.00316 µM): 105%; viability, T/C (second compound 0.316 µM, first compound 0.01 µM): 92.6%; viability, T/C (second compound 1 µM, first compound 0.00316 µM): 88.1%; viability, T/C (second compound 1 µM, first compound 0.01 µM): 90.5%; viability, T/C (second compound 3.16 µM, first compound 0.00316 µM): 97.4%; viability, T/C (second compound 3.16 µM, first compound 0.01 µM): 103%; viability, T/C [21]: 110%; viability, T/C (second compound 10 µM, first compound 0.00316 µM): 52.4%; viability, T/C (second compound 10 µM, first compound 0.01 µM): 54.8%; viability, T/C [22]: 51%; viability, T/C [23]: 53%; viability, T/C [24]: 48.9%; viability, T/C [25]: 47.5%
2 | O=C(c1cc(Cc2n[nH]c(=O)c3ccccc23)ccc1F)N1CCN(C(=O)C2CC2)CC1 + CC(CO)NC(=O)c1cc(-c2ccc(Cl)cc2)nn(-c2cnn(C)c2)c1=O | > 10000 nM | > 10000 nM | > 10000 nM | > 10000 nM | > 10000 nM | 84.4% | 95.4% | 100% | 82.1% | 79.8% | 77.9% | 75.8% | 81.8% | 79.7% | 99.7% | 83.8% | 67.8% | 76.9% | 79.3% | 79.8% | viability, T/C [26]: 88.2%; viability, T/C [27]: 78.8%; viability, T/C [28]: 77.7%; viability, T/C [29]: 75.8%; viability, T/C [30]: 78%; viability, T/C [31]: 103%; viability, T/C [21]: 92.2%; viability, T/C [32]: 68.5%; viability, T/C [33]: 82.5%; viability, T/C [22]: 67.8%; viability, T/C [23]: 67.3%; viability, T/C [24]: 76.2%; viability, T/C [25]: 81.7%; viability, T/C [34]: 81.2%; viability, T/C [35]: 60.6%
3 | COc1cccc2c1C(=O)c1c(O)c3c(c(O)c1C2=O)CC(O)(C(=O)CO)CC3OC1CC(N)C(O)C(C)O1 (configuration not stated) + Cc1ccccc1N=Nc1ccc(NC(=O)c2ccnn2C)c(C)c1 | < 31.6 nM | < 31.6 nM | 152 nM | 115 nM | 128 nM | 39.7% | 52.7% | 32.5% | 3% | 52.6% | 45.9% | 34.7% | 2.92% | 56.4% | 58.8% | 36.6% | 3.45% | 54.6% | 49.7% | 34.9% | viability, T/C [26]: 3.18%; viability, T/C [27]: 2.71%; viability, T/C [28]: 2.63%; viability, T/C [29]: 3.51%; viability, T/C [30]: 3.18%; viability, T/C [31]: 4.18%; viability, T/C [21]: 2.56%; viability, T/C [32]: 3.52%; viability, T/C [33]: 3.41%; viability, T/C [22]: 57.6%; viability, T/C [23]: 50.4%; viability, T/C [24]: 35.4%; viability, T/C [25]: 1.26%; viability, T/C [34]: 3.22%; viability, T/C [35]: 3.53%
4 | CC(C)CC(NC(=O)C(Cc1ccccc1)NC(=O)c1cnccn1)B(O)O (configuration not stated) | – | – | – | – | – | – | – | – | – | – | – | – | – | – | – | – | – | – | – | – | viability, T/C (compound 0.000949 µM): 97.1% and 109% and 95.8%; viability, T/C (compound 0.003 µM): 89.3% and 86% and 67.3%; viability, T/C (compound 0.00949 µM): 7.81% and 7.15% and 1.46%; viability, T/C (compound 0.03 µM): 0.75% and 0.78% and 0.59%; viability, T/C (compound 0.0949 µM): 0.47% and 0.58% and 0.43%; viability, T/C (compound 0.3 µM): 0.64% and 0.89% and 0.44%; IC50 (curve of compound): 5.23 nM and 5.07 nM and 4.06 nM
